This assay has as its target T1, human transferrin receptor (hTfR) (Homo sapiens, UniProt P02786).
T1 construct: made in house
Briefly: Evaluation of molecular interaction between transferrin receptor (hTfR) and peptide using surface plasmon resonance (SPR). The class given is binding. As to conditions: surface plasmon resonance, binding to hTfR; KD class symbol; read-out: SPR (KD value). The method, boiled down:
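Binding kinetics of peptides to immobilized recombinant human TfR dimer were measured by SPR at 5–100 nM in a single-cycle format, with KD obtained from curve fitting.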

Positions of bridges follow the written chain, without caps; N, C: chain ends. Non-standard residues stand in square brackets, D forms with d. Residues, ends and D or L forms follow the SMILES beside them. *: point of attachment. Trp(1-CH2COOH) = N[C@@H](Cc1cn(CC(=O)O)c2ccccc12)C(=O)O; Phe(3-COOH) = N[C@@H](Cc1cccc(C(=O)O)c1)C(=O)O; NH(CH2CH2O)8Me = COCCOCCOCCOCCOCCOCCOCCOCCN*; NMePhe(3-Cl) = CN[C@@H](Cc1cccc(Cl)c1)C(=O)O; 3Pal(6-NH2) = Nc1ccc(C[C@H](N)C(=O)O)cn1; NMeY = CN[C@@H](Cc1ccc(O)cc1)C(=O)O; 3Pal = N[C@@H](Cc1cccnc1)C(=O)O; 4Pal = N[C@@H](Cc1ccncc1)C(=O)O; PEG4 = NCCOCCOCCOCCOCCC(=O)O; Carboxymethyl = O=C(O)C*

As usually defined, the Kd is the free concentration of one partner at which half of the binding sites on the other are occupied at equilibrium, for simple one-to-one binding.

T1 sequence (P02786 89-760 limits assumed): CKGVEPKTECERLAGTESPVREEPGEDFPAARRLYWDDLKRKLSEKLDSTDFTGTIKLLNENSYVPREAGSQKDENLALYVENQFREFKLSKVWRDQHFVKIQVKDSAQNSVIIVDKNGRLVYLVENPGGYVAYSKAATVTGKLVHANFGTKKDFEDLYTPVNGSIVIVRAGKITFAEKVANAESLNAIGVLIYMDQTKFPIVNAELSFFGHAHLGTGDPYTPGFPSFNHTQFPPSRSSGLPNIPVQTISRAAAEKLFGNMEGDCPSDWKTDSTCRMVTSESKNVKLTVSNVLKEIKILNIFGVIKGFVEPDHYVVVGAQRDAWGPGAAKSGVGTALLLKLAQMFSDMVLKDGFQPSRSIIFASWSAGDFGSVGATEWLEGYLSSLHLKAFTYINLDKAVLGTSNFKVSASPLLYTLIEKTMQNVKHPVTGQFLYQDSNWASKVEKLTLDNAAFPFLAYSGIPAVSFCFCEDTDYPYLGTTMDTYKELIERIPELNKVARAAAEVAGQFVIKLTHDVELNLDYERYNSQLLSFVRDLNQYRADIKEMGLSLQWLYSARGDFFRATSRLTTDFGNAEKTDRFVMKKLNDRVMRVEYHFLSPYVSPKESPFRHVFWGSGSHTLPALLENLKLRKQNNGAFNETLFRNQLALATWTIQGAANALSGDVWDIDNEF

For the compound `CC[C@H](C)[C@@H]1NC(=O)[C@H](Cc2ccc(OC)cc2)NC(=O)[C@H](Cc2ccc(O)cc2)NC(=O)[C@H](CC(N)=O)NC(=O)[C@H](Cc2cn(CC(=O)O)c3ccccc23)NC(=O)[C@H](C(C)C)NC(=O)[C@H](Cc2cccc(Cl)c2)N(C)C(=O)[C@H](C(C)C)NC(=O)[C@H](C)NC(=O)CSC[C@@H](C(=O)NCCOCCOCCOCCOCCC(N)=O)NC(=O)[C@H](Cc2ccc(O)cc2)N(C)C(=O)[C@H](Cc2cccc(C(=O)O)c2)NC(=O)[C@H](CCC(=O)NCCOCCOCCOCCOCCOCCOCCOCCOC)NC(=O)[C@H](CCCNC(=N)N)NC(=O)[C@H]([C@@H](C)CC)NC1=O` [compound 77] ({CH2CO}-AV[NMePhe(3-Cl)]V[Trp(1-CH2COOH)]NYY(Me)IIRE(NH(CH2CH2O)8Me)[Phe(3-COOH)][NMeY]C[PEG4]-NH2; thioether N-15), the dissociation constant Kd lay within 1 to 100 nM. The figure for `CC[C@H](C)[C@@H]1NC(=O)[C@H](Cc2ccc(OC)cc2)NC(=O)[C@H](Cc2ccc(O)cc2)NC(=O)[C@H](CC(N)=O)NC(=O)[C@H](Cc2cn(CC(=O)O)c3ccccc23)NC(=O)[C@H](C(C)C)NC(=O)[C@H](Cc2cccc(Cl)c2)N(C)C(=O)[C@H](C(C)C)NC(=O)[C@H](C)NC(=O)CSC[C@@H](C(=O)NCCOCCOCCOCCOCCC(N)=O)NC(=O)[C@H](Cc2ccc(O)cc2)N(C)C(=O)[C@H](Cc2ccncc2)NC(=O)[C@H](CCC(=O)NCCOCCOCCOCCOCCOCCOCCOCCOC)NC(=O)[C@H](CCCNC(=N)N)NC(=O)[C@H]([C@@H](C)CC)NC1=O` [compound 78] ({CH2CO}-AV[NMePhe(3-Cl)]V[Trp(1-CH2COOH)]NYY(Me)IIRE(NH(CH2CH2O)8Me)[4Pal][NMeY]C[PEG4]-NH2; thioether N-15) is 1 to 100 nM; for `CC[C@H](C)[C@@H]1NC(=O)[C@H](Cc2cccnc2)NC(=O)[C@H](Cc2ccc(N)nc2)NC(=O)[C@H](CC(N)=O)NC(=O)[C@H](Cc2cn(CC(=O)O)c3ccccc23)NC(=O)[C@H](C(C)C)NC(=O)[C@H](Cc2cccc(Cl)c2)N(C)C(=O)[C@H](C(C)C)NC(=O)[C@H](C)NC(=O)CSC[C@@H](C(=O)NCCOCCOCCOCCOCCC(N)=O)NC(=O)[C@H](Cc2ccc(O)cc2)N(C)C(=O)[C@H](Cc2cccc(C(=O)O)c2)NC(=O)[C@H](CCCNC(=N)N)NC(=O)[C@H](CCCNC(=N)N)NC(=O)[C@H]([C@@H](C)CC)NC1=O` [compound 79] ({CH2CO}-AV[NMePhe(3-Cl)]V[Trp(1-CH2COOH)]N[3Pal(6-NH2)][3Pal]IIRR[Phe(3-COOH)][NMeY]C[PEG4]-NH2; thioether N-15) it is 1 to 100 nM; for `CC[C@H](C)[C@@H]1NC(=O)[C@H](Cc2ccc(OCC(=O)O)cc2)NC(=O)[C@H](Cc2ccc(N)nc2)NC(=O)[C@H](CC(N)=O)NC(=O)[C@H](Cc2cn(CC(=O)O)c3ccccc23)NC(=O)[C@H](C(C)C)NC(=O)[C@H](Cc2cccc(Cl)c2)N(C)C(=O)[C@H](C(C)C)NC(=O)[C@H](C)NC(=O)CSC[C@@H](C(=O)NCCOCCOCCOCCOCCC(N)=O)NC(=O)[C@H](Cc2ccc(O)cc2)N(C)C(=O)[C@H](Cc2ccncc2)NC(=O)[C@H](CCCNC(=N)N)NC(=O)[C@H](CCCNC(=N)N)NC(=O)[C@H]([C@@H](C)CC)NC1=O` [compound 80] it is 1 to 100 nM. With `CC[C@H](C)[C@@H]1NC(=O)[C@H](Cc2ccc(OCC(=O)O)cc2)NC(=O)[C@H](Cc2ccc(N)nc2)NC(=O)[C@H](CC(N)=O)NC(=O)[C@H](Cc2cn(CC(=O)O)c3ccccc23)NC(=O)[C@H](C(C)C)NC(=O)[C@H](Cc2cccc(Cl)c2)N(C)C(=O)[C@H](C(C)C)NC(=O)[C@H](C)NC(=O)CSC[C@@H](C(=O)NCCOCCOCCOCCOCCC(N)=O)NC(=O)[C@H](Cc2ccc(O)cc2)N(C)C(=O)[C@H](Cc2cccc(C(=O)O)c2)NC(=O)[C@H](CCCNC(=N)N)NC(=O)[C@H](CCCNC(=N)N)NC(=O)[C@H]([C@@H](C)CC)NC1=O` [compound 81] ({CH2CO}-AV[NMePhe(3-Cl)]V[Trp(1-CH2COOH)]N[3Pal(6-NH2)]Y(Carboxymethyl)IIRR[Phe(3-COOH)][NMeY]C[PEG4]-NH2; thioether N-15) the figure was 1 to 100 nM; with `CC[C@H](C)[C@@H]1NC(=O)[C@H](Cc2ccc(OCC(=O)O)cc2)NC(=O)[C@H](Cc2ccc(O)cc2)NC(=O)[C@H](CC(N)=O)NC(=O)[C@H](Cc2cn(CC(=O)O)c3ccccc23)NC(=O)[C@H](C(C)C)NC(=O)[C@H](Cc2cccc(Cl)c2)N(C)C(=O)[C@H](C(C)C)NC(=O)[C@H](C)NC(=O)CSC[C@@H](C(=O)NCCOCCOCCOCCOCCC(N)=O)NC(=O)[C@H](Cc2ccc(O)cc2)N(C)C(=O)[C@H](Cc2ccncc2)NC(=O)[C@H](CCC(=O)NCCOCCOCCOCCOCCOCCOCCOCCOC)NC(=O)[C@H](CCCNC(=N)N)NC(=O)[C@H]([C@@H](C)CC)NC1=O` [compound 82] ({CH2CO}-AV[NMePhe(3-Cl)]V[Trp(1-CH2COOH)]NYY(Carboxymethyl)IIRE(NH(CH2CH2O)8Me)[4Pal][NMeY]C[PEG4]-NH2; thioether N-15), 1 to 100 nM; with `CC[C@H](C)[C@@H]1NC(=O)[C@H](Cc2cccnc2)NC(=O)[C@H](Cc2ccc(O)cc2)NC(=O)[C@H](CC(N)=O)NC(=O)[C@H](Cc2cn(CC(=O)O)c3ccccc23)NC(=O)[C@H](C(C)C)NC(=O)[C@H](Cc2cccc(Cl)c2)N(C)C(=O)[C@H](C(C)C)NC(=O)[C@H](C)NC(=O)CSC[C@@H](C(=O)NCCOCCOCCOCCOCCC(N)=O)NC(=O)[C@H](Cc2ccc(O)cc2)N(C)C(=O)[C@H](Cc2ccncc2)NC(=O)[C@H](CCC(=O)NCCOCCOCCOCCOCCOCCOCCOCCOC)NC(=O)[C@H](CCCNC(=N)N)NC(=O)[C@H]([C@@H](C)CC)NC1=O` [compound 83] ({CH2CO}-AV[NMePhe(3-Cl)]V[Trp(1-CH2COOH)]NY[3Pal]IIRE(NH(CH2CH2O)8Me)[4Pal][NMeY]C[PEG4]-NH2; thioether N-15), 1 to 100 nM. The figure for `CC[C@H](C)[C@@H]1NC(=O)[C@H](Cc2cccnc2)NC(=O)[C@H](Cc2ccc(O)cc2)NC(=O)[C@H](CC(N)=O)NC(=O)[C@H](Cc2cn(CC(=O)O)c3ccccc23)NC(=O)[C@H](C(C)C)NC(=O)[C@H](Cc2cccc(Cl)c2)N(C)C(=O)[C@H](C(C)C)NC(=O)[C@H](C)NC(=O)CSC[C@@H](C(=O)NCCOCCOCCOCCOCCC(N)=O)NC(=O)[C@H](Cc2ccc(O)cc2)N(C)C(=O)[C@H](Cc2cccc(C(=O)O)c2)NC(=O)[C@H](CCC(=O)NCCOCCOCCOCCOCCOCCOCCOCCOC)NC(=O)[C@H](CCCNC(=N)N)NC(=O)[C@H]([C@@H](C)CC)NC1=O` [compound 84] ({CH2CO}-AV[NMePhe(3-Cl)]V[Trp(1-CH2COOH)]NY[3Pal]IIRE(NH(CH2CH2O)8Me)[Phe(3-COOH)][NMeY]C[PEG4]-NH2; thioether N-15) is 1 to 100 nM; for `CC[C@H](C)[C@@H]1NC(=O)[C@H](Cc2cccnc2)NC(=O)[C@H](Cc2ccc(N)nc2)NC(=O)[C@H](CC(N)=O)NC(=O)[C@H](Cc2cn(CC(=O)O)c3ccccc23)NC(=O)[C@H](C(C)C)NC(=O)[C@H](Cc2cccc(Cl)c2)N(C)C(=O)[C@H](C(C)C)NC(=O)[C@H](C)NC(=O)CSC[C@@H](C(=O)NCCOCCOCCOCCOCCC(N)=O)NC(=O)[C@H](Cc2ccc(O)cc2)N(C)C(=O)[C@H](Cc2cccc(C(=O)O)c2)NC(=O)[C@H](CCC(=O)NCCOCCOCCOCCOCCOCCOCCOCCOC)NC(=O)[C@H](CCCNC(=N)N)NC(=O)[C@H]([C@@H](C)CC)NC1=O` [compound 85] ({CH2CO}-AV[NMePhe(3-Cl)]V[Trp(1-CH2COOH)]N[3Pal(6-NH2)][3Pal]IIRE(NH(CH2CH2O)8Me)[Phe(3-COOH)][NMeY]C[PEG4]-NH2; thioether N-15) it is 100 to 1000 nM; for `CC[C@H](C)[C@@H]1NC(=O)[C@H](Cc2cccnc2)NC(=O)[C@H](Cc2ccc(N)nc2)NC(=O)[C@H](CC(N)=O)NC(=O)[C@H](Cc2cn(CC(=O)O)c3ccccc23)NC(=O)[C@H](C(C)C)NC(=O)[C@H](Cc2cccc(Cl)c2)N(C)C(=O)[C@H](C(C)C)NC(=O)[C@H](C)NC(=O)CSC[C@@H](C(=O)NCCOCCOCCOCCOCCC(N)=O)NC(=O)[C@H](Cc2ccc(O)cc2)N(C)C(=O)[C@H](Cc2ccncc2)NC(=O)[C@H](CCC(=O)NCCOCCOCCOCCOCCOCCOCCOCCOC)NC(=O)[C@H](CCCNC(=N)N)NC(=O)[C@H]([C@@H](C)CC)NC1=O` [compound 86] ({CH2CO}-AV[NMePhe(3-Cl)]V[Trp(1-CH2COOH)]N[3Pal(6-NH2)][3Pal]IIRE(NH(CH2CH2O)8Me)[4Pal][NMeY]C[PEG4]-NH2; thioether N-15) it is 100 to 1000 nM.

For the compound `CC[C@H](C)[C@@H]1NC(=O)[C@H](Cc2ccc(OCC(=O)O)cc2)NC(=O)[C@H](Cc2ccc(N)nc2)NC(=O)[C@H](CC(N)=O)NC(=O)[C@H](Cc2cn(CC(=O)O)c3ccccc23)NC(=O)[C@H](C(C)C)NC(=O)[C@H](Cc2cccc(Cl)c2)N(C)C(=O)[C@H](C(C)C)NC(=O)[C@H](C)NC(=O)CSC[C@@H](C(=O)NCCOCCOCCOCCOCCC(N)=O)NC(=O)[C@H](Cc2ccc(O)cc2)N(C)C(=O)[C@H](Cc2cccc(C(=O)O)c2)NC(=O)[C@H](CCC(=O)NCCOCCOCCOCCOCCOCCOCCOCCOC)NC(=O)[C@H](CCCNC(=N)N)NC(=O)[C@H]([C@@H](C)CC)NC1=O` [compound 87] ({CH2CO}-AV[NMePhe(3-Cl)]V[Trp(1-CH2COOH)]N[3Pal(6-NH2)]Y(Carboxymethyl)IIRE(NH(CH2CH2O)8Me)[Phe(3-COOH)][NMeY]C[PEG4]-NH2; thioether N-15), the Kd lay within 100 to 1000 nM. The figure for `CC[C@H](C)[C@@H]1NC(=O)[C@H](Cc2ccc(OCC(=O)O)cc2)NC(=O)[C@H](Cc2ccc(N)nc2)NC(=O)[C@H](CC(N)=O)NC(=O)[C@H](Cc2cn(CC(=O)O)c3ccccc23)NC(=O)[C@H](C(C)C)NC(=O)[C@H](Cc2cccc(Cl)c2)N(C)C(=O)[C@H](C(C)C)NC(=O)[C@H](C)NC(=O)CSC[C@@H](C(=O)NCCOCCOCCOCCOCCC(N)=O)NC(=O)[C@H](Cc2ccc(O)cc2)N(C)C(=O)[C@H](Cc2ccncc2)NC(=O)[C@H](CCC(=O)NCCOCCOCCOCCOCCOCCOCCOCCOC)NC(=O)[C@H](CCCNC(=N)N)NC(=O)[C@H]([C@@H](C)CC)NC1=O` [compound 88] ({CH2CO}-AV[NMePhe(3-Cl)]V[Trp(1-CH2COOH)]N[3Pal(6-NH2)]Y(Carboxymethyl)IIRE(NH(CH2CH2O)8Me)[4Pal][NMeY]C[PEG4]-NH2; thioether N-15) is 100 to 1000 nM.
